{"source": "patent US11390604B2", "about": "(Hoffmann-La Roche Inc., priority 2019, dated 2022)", "note": "Counter-ions that a name gives are not always drawn.", "data": [{"tested_on": "Acinetobacter baumannii ATCC 17961", "assay": "Antimicrobial susceptibility testing: 90% growth inhibitory concentration (IC90) determination", "assay_type": "cell-based", "conditions": "ATCC17961, Acinetobacter baumannii ATCC 17961, Iso-Sensitest broth, read-out: ATCC 17961 IC90", "experimental": "(§1) Antimicrobial Susceptibility Testing:\n(§2) 90% Growth Inhibitory Concentration (IC90) Determination\n(§3) The in vitro antimicrobial activity of the compounds was determined according to the following procedure:\n(§4) The assay used a 10-points Iso-Sensitest broth medium to measure quantitatively the in vitro activity of the compounds against Acinetobacter baumannii ATCC 17961.\n(§5) Stock compounds in DMSO were serially twofold diluted (e.g. range from 50 to 0.097 μM final concentration) in 384 wells microtiter plates and inoculated with 49 μl the bacterial suspension in Iso-Sensitest medium to have a final cell concentration of ˜5×10^(5) CFU/ml in a final volume/well of 50 ul/well. Microtiter plates were incubated at 35±2° C.\n(§6) Bacterial cell growth was determined with the measurement of optical density at X=600 nm each 20 minutes over a time course of 16 h. Growth inhibition was calculated during the logarithmic growth of the bacterial cells with determination of the concentration inhibiting 50% (IC50) and 90% (IC90) of the growth.\n(§7) Table 1 provides the 90% growth inhibitory concentrations (IC90) in micromoles per liter of the compounds of present disclosure obtained against the strain Acinetobacter baumannii ATCC 17961.", "units": {"IC90": "nM"}, "values": [{"smiles": "COC1CN(C(=O)N[C@H]2CNC[C@@H]2O)CC1NC(=O)c1ccc(NC(=O)c2ncc(-c3cn(C4CC4(F)F)nc3C(F)(F)F)n2C)cc1Cl", "note": "(mixture of isomers) [Example 350, rac-N-(3-chloro-4-((trans-1-(((3R,4R)-4-hydroxypyrrolidin-3-yl)carbamoyl)-4-methoxypyrrolidin-3-yl)carbamoyl)phenyl)-5-(1-(2,2-difluorocyclopropyl)-3-(trifluoromethyl)-1H-pyrazol-4-yl)-1-methyl-1H-imidazole-2-carboxamide formate]", "IC90": 450}, {"smiles": "Cn1c(-c2cn(CC3CC3)nc2C(F)(F)F)cnc1C(=O)Nc1ccc(C(=O)N2CCN(C(=O)C3[C@H]4CNC[C@@H]34)CC2)c(Cl)c1", "note": "(mixture of isomers) [Example 358, rac-N-(4-(4-((1R,5S)-3-azabicyclo[3.1.0]hexane-6-carbonyl)piperazine-1-carbonyl)-3-chlorophenyl)-5-(1-(cyclopropylmethyl)-3-(trifluoromethyl)-1H-pyrazol-4-yl)-1-methyl-1H-imidazole-2-carboxamide hydrochloride]", "IC90": 467}, {"smiles": "Cn1c(-c2cn(C3CC3(F)F)nc2C(F)(F)F)cnc1C(=O)Nc1ccc(C(=O)NCC2C3CN(C(=O)N[C@H]4CNC[C@@H]4O)CC23)c(Cl)c1", "note": "(mixture of isomers) [Example 365, rac-6-((2-chloro-4-(5-(1-(2,2-difluorocyclopropyl)-3-(trifluoromethyl)-1H-pyrazol-4-yl)-1-methyl-1H-imidazole-2-carboxamido)benzamido)methyl)-N-((3S,4S)-4-hydroxypyrrolidin-3-yl)-3-azabicyclo[3.1.0]hexane-3-carboxamide formate]", "IC90": 483}, {"smiles": "Cn1c(-c2cn(CC3CC3(F)F)nc2C(F)(F)F)cnc1C(=O)Nc1ccc(C(=O)N[C@H]2[C@@H]3CN(C(=O)N[C@@H]4CNC[C@H]4O)C[C@@H]32)c(Cl)c1", "note": "(mixture of isomers) [Example 385, rac-(1R,5S,6s)-6-(2-chloro-4-(5-(1-((2,2-difluorocyclopropyl)methyl)-3-(trifluoromethyl)-1H-pyrazol-4-yl)-1-methyl-1H-imidazole-2-carboxamido)benzamido)-N-((3S,4S)-4-hydroxypyrrolidin-3-yl)-3-azabicyclo[3.1.0]hexane-3-carboxamide formate]", "IC90": 100}, {"smiles": "Cn1c(-c2cn(C3CC3(F)F)nc2C(F)(F)F)cnc1C(=O)Nc1ccc(C(=O)NC2CCN(C(=O)N[C@@H]3CNC[C@H]3O)CC2)c(Cl)c1", "note": "(relative stereo) [Example 337, 4-(2-chloro-4-(5-(1-(2,2-difluorocyclopropyl)-3-(trifluoromethyl)-1H-pyrazol-4-yl)-1-methyl-1H-imidazole-2-carboxamido)benzamido)-N-(trans-4-hydroxypyrrolidin-3-yl)piperidine-1-carboxamide]", "IC90": 426}, {"smiles": "Cn1c(-c2c[nH]nc2C(F)(F)F)cnc1C(=O)Nc1ccc(C(=O)N2CCN(C(=O)C3CCNCC3)CC2)c(Cl)c1", "note": "[Example 1, N-(3-chloro-4-(4-(piperidine-4-carbonyl)piperazine-1-carbonyl)phenyl)-1-methyl-5-(3-(trifluoromethyl)-1H-pyrazol-4-yl)-1H-imidazole-2-carboxamide hydrochloride]", "IC90": 525}, {"smiles": "Cn1c(-c2cn(CC(F)(F)F)nc2C(F)(F)F)cnc1C(=O)Nc1ccc(C(=O)N2CCN(C(=O)C3CCNCC3)CC2)c(Cl)c1", "note": "[Example 2, N-(3-Chloro-4-(4-(piperidine-4-carbonyl)piperazine-1-carbonyl)phenyl)-1-methyl-5-(1-(2,2,2-trifluoroethyl)-3-(trifluoromethyl)-1H-pyrazol-4-yl)-1H-imidazole-2-carboxamide Hydrochloride]", "IC90": 399}]}, {"tested_on": "Acinetobacter baumannii ATCC 17961", "assay": "Antimicrobial susceptibility testing: 90% growth inhibitory concentration (IC90) determination", "assay_type": "cell-based", "conditions": "Acinetobacter baumannii, ATCC17961, read-out: ATCC 17961 IC90, Acinetobacter baumannii ATCC 17961, Iso-Sensitest broth", "experimental": "as §1, §2, §3, §4, §5, §6, §7", "units": {"IC90": "nM"}, "values": [{"smiles": "Cn1c(-c2cn(C3CC3(F)F)nc2C(F)(F)F)cnc1C(=O)Nc1ccc(C(=O)N2CCC(F)(CNC(=O)N[C@H]3CNC[C@@H]3O)CC2)c(Cl)c1", "note": "(relative stereo) [Example 179, N-(3-chloro-4-(4-fluoro-4-((3-(trans-4-hydroxypyrrolidin-3-yl)ureido)methyl)piperidine-1-carbonyl)phenyl)-5-(1-(2,2-difluorocyclopropyl)-3-(trifluoromethyl)-1H-pyrazol-4-yl)-1-methyl-1H-imidazole-2-carboxamide Formate]", "IC90": 192}]}]}
